Assay [1] deals with T1, OR5K1 (Homo sapiens, UniProt Q8NHB7).
T1 construct: The protein-coding region of human OR5K1 (NM_001004736.3); IL-6-HaloTag (from expression plasmid pFN210A) (N); expressed in transfected cells; host or cells: HEK-293
T1 sequence (Q8NHB7 1-308): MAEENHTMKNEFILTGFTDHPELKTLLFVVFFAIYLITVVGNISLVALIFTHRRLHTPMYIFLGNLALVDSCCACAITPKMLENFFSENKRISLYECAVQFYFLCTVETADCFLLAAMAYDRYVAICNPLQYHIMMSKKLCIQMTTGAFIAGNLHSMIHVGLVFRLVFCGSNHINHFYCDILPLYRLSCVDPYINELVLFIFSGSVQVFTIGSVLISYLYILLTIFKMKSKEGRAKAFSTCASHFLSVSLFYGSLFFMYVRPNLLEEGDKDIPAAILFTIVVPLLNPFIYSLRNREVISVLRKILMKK
The arrangement: method as in PMID 34047404. The settings on record: cited from earlier work; for EC50: OR5K1 agonist activity, data retrieved from the literature.

For another assay, the target named is T2, OR5K1 L255^6.51A (Homo sapiens, UniProt Q8NHB7, L255A).
T2 construct: The protein-coding region of human OR5K1 (NM_001004736.3); IL-6-HaloTag (from expression plasmid pFN210A) (N); expressed in transfected cells; host or cells: HEK-293
T2 sequence (Q8NHB7 1-308 L255A): T1 sequence (Q8NHB7 1-308) with L255A
Description: cAMP-luminescence concentration-response assay, mutant OR5K1 L255^6.51A in HEK-293 cells. Type of assay: cell-based. The settings on record: OR5K1 L255^6.51A mutant; mean ± SD, n = 4. As to the method: (§1) Mutants L104^3.32 and L255^6.51 were generated by PCR-based site-directed mutagenesis in two steps. Step one PCR was performed in two amplifications: one with the forward vector-internal primer and the reverse mutation-primer and the other with the forward mutation-primer and the reverse vector-internal primer. Amplification was performed with the touchdown approach described above. Both PCR amplicons were then purified and used as a template for step two. The two overlapping amplicons were annealed using the following touchdown program: denaturation (98 °C, 3 min), ten cycles containing denaturation (98 °C, 30 s), annealing (start 60 °C, 30 s), and extension (72 °C, 2 min). […]
(§2) We utilized HEK-293 cells,[101] a human embryonic kidney cell-line, as a test cell system for the functional expression of ORs.[102] […] The utilized pGloSensor-22F is a genetically engineered luciferase with a cAMP-binding pocket, allowing for measurements of a direct cAMP-dependent luminescence signal. […]
(§3) Concentration–response assays were measured 42 h post-transfection as described previously.[102] […] For luminescence measurements, the GloMax Discover microplate reader (Promega, Madison, USA) was used. After incubation for 50 min in the dark, the basal luminescence signal of each well was recorded thrice. […]

In a further assay the target is T3, OR5K1 L104^3.32A (Homo sapiens, UniProt Q8NHB7, L104A).
T3 construct: The protein-coding region of human OR5K1 (NM_001004736.3); IL-6-HaloTag (from expression plasmid pFN210A) (N); expressed in transfected cells; host or cells: HEK-293
T3 sequence (Q8NHB7 1-308 L104A): T1 sequence (Q8NHB7 1-308) with L104A
In words: cAMP-luminescence concentration-response assay, mutant OR5K1 L104^3.32A in HEK-293 cells. The class given is cell-based. The settings on record: OR5K1 L104^3.32A mutant; mean ± SD, n = 4. How it is done:
as §1, §2, §3

Assay [2] concerns the target T1, OR5K1. In words: cAMP-luminescence (GloSensor) concentration-response assay, OR5K1 transiently expressed in HEK-293 cells. Type of assay: cell-based. The settings on record: OR5K1 agonist activity, tested in this work, mean ± SD, n = 4, last tested concentration 300 μM. As to the method:
We utilized HEK-293 cells,[101] a human embryonic kidney cell-line, as a test cell system for the functional expression of ORs.[102] Cells were cultivated at 37 °C, 5% CO2, and 100% humidity in 4.5 g/L D-glucose containing DMEM with 10% fetal bovine serum, 2 mM L-glutamine, 100 U/mL penicillin, and 100 U/mL streptomycin. Cells were cultured in a 96-well format (Nunclon Delta Surface, #136102; Thermo Fisher Scientific, Schwerte, Germany) at 12,000 cells/well overnight. Then, cells were transfected utilizing 0.75 μL/well ViaFect (#E4981, Promega, USA) with the following constructs: 100 ng/well of the respective OR construct, 50 ng/well of chaperone RTP1S,[103] 50 ng/well of the G protein subunit Gαolf,[104],[105] olfactory G protein subunit Gγ13,[106] and 50 ng/well of pGloSensor-22F (Promega, Madison, USA).[107] The utilized pGloSensor-22F is a genetically engineered luciferase with a cAMP-binding pocket, allowing for measurements of a direct cAMP-dependent luminescence signal. All measurements were mock-controlled, i.e. pFN210A without OR was transfected in parallel.
Concentration–response assays were measured 42 h post-transfection as described previously.[102] […] For luminescence measurements, the GloMax Discover microplate reader (Promega, Madison, USA) was used. After incubation for 50 min in the dark, the basal luminescence signal of each well was recorded thrice. Then the odorant, serially diluted in the physiological salt buffer with added Pluronic PE-10500 (BASF, Ludwigshafen, Germany), was applied to the cells, and luminescence was measured thrice after 10 min of incubation time. […]
The raw luminescence data obtained from the GloMax Discover microplate reader detection system were analyzed for concentration/response assays by averaging both data points of basal levels and data points after odorant application. For a given luminescence signal, the respective basal level was subtracted, and the now corrected data set was normalized to the maximum amplitude of the reference. […]

Each structure is given as a SMILES string. Positions count from the first letter of the chain named. Read-outs that look alike come from different tables or passages of the source.

By EC50 is commonly meant the concentration at which the effect is half-maximal.

`CCc1ncc(C)nc1CC` [Compound 1, 2,3-Diethyl-5-methylpyrazine]: the EC50 is 10.3 ± 1.06 µM at OR5K1 [1], 478 ± 185 µM at OR5K1 L255^6.51A and 525 ± 92.3 µM at OR5K1 L104^3.32A. With `CCc1nccnc1C` [Compound 7, 2-Ethyl-3-methylpyrazine], the EC50 on OR5K1 [1] is 538 ± 96.8 µM. For the compound `CCc1nc(C)cnc1C` [Compound 2, 2-Ethyl-3,6-dimethylpyrazine], at OR5K1 [2] (read-out: EC50), the EC50 was found to be 14.8 ± 6.69 µM.

On to `CCc1nccnc1C(C)=O` [Compound 10, 2-Acetyl-3-ethylpyrazine], for which, at OR5K1 [1], the EC50 was 528 ± 167 µM. As to `CC(=O)c1nccnc1C` [Compound 11, 2-Acetyl-3-methylpyrazine], the EC50 on OR5K1 [1] was 531 ± 27.6 µM. As for `COc1nccnc1C(C)C` [Compound 9, 2-Isopropyl-3-methoxypyrazine], at OR5K1 [1], the EC50 was 146 ± 8.83 µM. Regarding `C=CCc1ccc(OC)c(OC)c1` [Compound 3, Methyl eugenol], the EC50 on OR5K1 [1] is 62.2 ± 1.45 µM.

With `Cc1cnc(C)c(C)n1` [Compound 6, 2,3,5-Trimethylpyrazine], at OR5K1 [1], the EC50 is 139 ± 7.08 µM. For the compound `Cc1cncc(C)n1` [Compound 12, 2,6-Dimethylpyrazine], on OR5K1 [1], the EC50 is 544 ± 19.5 µM. In the case of `CCc1nccnc1OC` [Compound 5, 2-Ethyl-3-methoxypyrazine], the EC50 on OR5K1 [1] was 97.4 ± 15.6 µM. On to `CCc1nccnc1CC` [Compound 4, 2,3-Diethylpyrazine], for which, on OR5K1 [1], the EC50 is 94.4 ± 11.9 µM. As to `CCc1ncc(C)nc1C` [Compound 13, 2-Ethyl-3,5-dimethylpyrazine], the results for the 50% effective concentration (EC50) entry at OR5K1 [2] and at OR5K1 [2] (read-out: EC50) were “could not be measured to saturation” and greater than 300 µM, respectively. In the case of `c1cnccn1` [pyrazine, reference compound], the “activation of OR5K1” value on OR5K1 [1] was “does not activate”.

These data come from PMC10091413, “Modeling the Orthosteric Binding Site of the G Protein-Coupled Odorant Receptor OR5K1” (Journal of Chemical Information and Modeling, 2023).
